Two compounds from patent publication EP1808172A2, “Botanical extract compositions and methods of use” (The Medical Research and Education Trust, priority 2002, dated 2003) can be followed below.

Holding throughout (type): cell-based
One experiment deals with LNCaP cell cycle. In words: Cell cycle measurement by DNA content flow cytometry, LNCaP. As to conditions: LNCaP cells, exposed 24-48 hours. On the procedure:
(§1) The cells were washed with phosphate buffered saline (PBS) and fixed in ice-cold 70% ethanol. Aliquots of fixed cells were rehydrated in PBS and stained with 1.0 microgram/milliliter DAPI (4,6-diamidino-2-phenylindole from Eastman Kodak, Rochester, NY), and dissolved in 10 millimolar piperazine-NN-bis-2-ethane-sulfonic acid buffer (Calbiochem, La Jolla, CA) containing 100 millimolar NaCl, 2mM MgCl2 and 0,1% Triton X-100 (Sigma) at pH 6.8 as previously described by Halicka et al. (H. D. Halicka, B. Ardelt, G. Juan, A. Mittelman, S. Chen, F. Traganos and Z. Darzynkiewicz, "Apoptosis and Cell Cycle Effects Induced by Extracts of the Chinese Herbal Preparation of PC SPES", International J. of Oncology (1997), 11: 437-448).
(§2) The cellular DNA content was measured with an ELITE ESP flow cytometer (Coulter Inc., Fl.) using UV laser illumination. The multicycle program was used to deconvolute the DNA frequency histograms to estimate the frequency of cells in different phases of the cell cycle.
In general terms: Flow cytometry measures light scatter and fluorescence of single cells or particles in a stream.

The target in a further experiment is T1, hERβ (Homo sapiens, UniProt Q92731).
T1 construct: expressed in transfected cells; host or cells: HEK 293 cells (ATCC CRL-1573)
T1 sequence (Q92731 whole entry): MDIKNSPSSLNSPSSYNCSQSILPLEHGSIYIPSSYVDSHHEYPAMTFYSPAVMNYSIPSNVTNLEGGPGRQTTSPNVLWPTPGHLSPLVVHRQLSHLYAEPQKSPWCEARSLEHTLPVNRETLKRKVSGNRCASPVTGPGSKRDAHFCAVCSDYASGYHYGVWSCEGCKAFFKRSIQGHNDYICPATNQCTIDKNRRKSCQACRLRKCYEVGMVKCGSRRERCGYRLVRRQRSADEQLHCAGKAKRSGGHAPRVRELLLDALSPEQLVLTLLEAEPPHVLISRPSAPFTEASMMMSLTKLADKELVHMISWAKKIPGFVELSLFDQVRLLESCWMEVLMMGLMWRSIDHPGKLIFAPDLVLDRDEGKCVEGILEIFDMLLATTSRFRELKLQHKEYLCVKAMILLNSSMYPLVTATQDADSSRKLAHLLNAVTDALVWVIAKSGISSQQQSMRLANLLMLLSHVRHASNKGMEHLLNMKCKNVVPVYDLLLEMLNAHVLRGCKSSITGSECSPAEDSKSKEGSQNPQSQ
As to the kind of experiment: ERE-LUC reporter gene activation in transfected HEK 293 cells, ER beta. As to conditions: 0 to 9 µg/ml, 20 hours. An excerpt:
(§3) HEK 293 cells (ATCC CRL-1573) were transfected with an expression vector for hERα and hERβ respectively, and an ERE-LUC reporter gene (plus a TK-LUC reporter for normalization) following the protocol of Yoon et al ("Differential activation of wild-type and variant forms of estrogen receptor α by synthetic and natural estrogenic compounds using a promoter containing three estrogen-responsive elements", J. Steroid Biochem. & Molecular Biology (2000), 28: pages 25-32).
In general terms: Reporter assays use an easily measured gene product as a stand-in for the process of interest.

The target of the next experiment is T2, hERα (Homo sapiens, UniProt P03372).
T2 construct: expressed in transfected cells; host or cells: HEK 293 cells (ATCC CRL-1573)
T2 sequence (P03372 whole entry): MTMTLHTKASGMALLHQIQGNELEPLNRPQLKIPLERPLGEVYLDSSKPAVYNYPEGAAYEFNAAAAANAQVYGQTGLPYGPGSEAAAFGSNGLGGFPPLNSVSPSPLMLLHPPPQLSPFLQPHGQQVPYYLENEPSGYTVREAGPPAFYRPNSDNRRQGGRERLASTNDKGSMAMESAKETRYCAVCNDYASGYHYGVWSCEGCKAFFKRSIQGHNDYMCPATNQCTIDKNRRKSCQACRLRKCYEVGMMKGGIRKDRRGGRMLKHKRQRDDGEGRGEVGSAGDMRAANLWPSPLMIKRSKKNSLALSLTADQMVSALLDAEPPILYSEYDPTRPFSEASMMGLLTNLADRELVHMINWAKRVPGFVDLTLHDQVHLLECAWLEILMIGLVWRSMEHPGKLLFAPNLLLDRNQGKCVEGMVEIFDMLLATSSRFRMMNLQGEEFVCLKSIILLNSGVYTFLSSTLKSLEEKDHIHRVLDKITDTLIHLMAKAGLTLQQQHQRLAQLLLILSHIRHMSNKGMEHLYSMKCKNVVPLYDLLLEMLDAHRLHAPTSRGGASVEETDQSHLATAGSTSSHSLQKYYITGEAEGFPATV
In words: ERE-LUC reporter gene activation in transfected HEK 293 cells, ER alpha. As to conditions: 0 to 9 µg/ml, 20 hours.
Description: as §3

A further experiment concerns DU-145 cell cycle. In words: Cell cycle measurement by DNA content flow cytometry, DU-145. As to conditions: DU-145 cells, protocol of Example 3. On the procedure: as §1, §2
A prolongation in the G2M phase leads to the suppression of DU-145 cell proliferation.

On to `O=C(/C=C/c1ccc(O)cc1)c1ccc(O)cc1O` [isoliquiritigenin, 2',4,4'-trihydroxychalcone], for which the “effect on G1, S, and G2M phases of the LNCaP cell cycle” value in the experiment on LNCaP cell cycle was “induced a G2M phase arrest”. In addition, the “ERβ-Luc reporter gene activation” value on hERβ is given as “activated”. Also, the “ERα-Luc reporter gene activation” value at hERα was “activated”.

With `COc1c(O)cc(O)c2c(=O)cc(-c3ccccc3)oc12` [Wogonin, 5,7-dihydroxy-8-methoxy-flavone], the “effect on the DU-145 cell cycle” value in the experiment with DU-145 cell cycle is “prolonged the G2M phase”. In the experiment on LNCaP cell cycle, the “effect on G1, S, and G2M phases of the LNCaP cell cycle” value is “induced a G1 phase arrest”. The “ERβ-Luc reporter gene activation” value at hERβ is “activated”. Further, at hERα, the “ERα-Luc reporter gene activation” value is “activated”.
